Data taken from patent US20260356856A1, “KRAS G12S AND G12C INHIBITORS” (MIRATI THERAPEUTICS, INC., priority 2023, published 2026).

Legend:
Assay in all cases: KRas binding assay, TR-FRET displacement of Cy5 labelled tracer
Details in all cases: 60-minute incubation at room temperature, 1% DMSO, pH 7.5
[1] = biological target: T1, KRas G12S (Homo sapiens, UniProt P01116, G12S)
T1 construct: Biotinylated KRas (corresponding to amino acids 1-169, produced at Accelegan Inc.); biotin (biotinylated); purchased Accelegan Inc
T1 sequence (P01116 1-169 isoform P01116-2 G12S): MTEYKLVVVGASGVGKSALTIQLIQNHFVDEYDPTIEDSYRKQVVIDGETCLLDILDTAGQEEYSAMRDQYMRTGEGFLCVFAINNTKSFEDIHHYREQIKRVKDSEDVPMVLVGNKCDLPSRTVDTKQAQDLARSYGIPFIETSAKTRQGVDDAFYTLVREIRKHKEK
Protocol: (§1) This Example illustrates that exemplary compounds of the present invention bind to KRas and are capable of displacing a labeled tracer ligand occupying the KRas binding site. KRas^WT, KRas^G12A, KRas^G12C, KRas^G12D, KRas^G12R, KRas^G12S, KRas^G12V, KRas^G13D, or KRas^Q61H was used in the assay.
(§2) The ability of a compound to bind to KRas was measured using a TR-FRET displacement assay. Biotinylated KRas (corresponding to amino acids 1-169, produced at Accelegan Inc.) was incubated with custom made Cy5 labelled tracer, terbium streptavidin (Cisbio Inc.) and compound (1% DMSO final) in buffer (50 mM HEPES, pH 7.5, 5 mM MgCl2, 0.005% Tween-20 and 1 mM DTT). After a 60-minute incubation at room temperature, the reaction was measured using a BMG LABTECH CLARIO star Plus via TR-FRET. […] The POC values were fit to a 4-parameter IC50 equation and the IC50 value reported.

[2] = biological target: T2, KRas WT (Homo sapiens, UniProt P01116)
T2 construct: Biotinylated KRas (corresponding to amino acids 1-169, produced at Accelegan Inc.); biotin (biotinylated); purchased Accelegan Inc
T2 sequence (P01116 1-169 isoform P01116-2): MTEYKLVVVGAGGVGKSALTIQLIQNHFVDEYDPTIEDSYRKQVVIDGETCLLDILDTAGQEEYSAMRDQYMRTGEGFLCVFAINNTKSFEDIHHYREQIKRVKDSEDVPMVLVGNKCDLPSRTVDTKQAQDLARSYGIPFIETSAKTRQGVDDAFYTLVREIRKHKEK
Protocol: as §1, §2

[3] = biological target: T3, KRas G12C (Homo sapiens, UniProt P01116, G12C)
T3 construct: Biotinylated KRas (corresponding to amino acids 1-169, produced at Accelegan Inc.); biotin (biotinylated); purchased Accelegan Inc
T3 sequence (P01116 1-169 isoform P01116-2 G12C): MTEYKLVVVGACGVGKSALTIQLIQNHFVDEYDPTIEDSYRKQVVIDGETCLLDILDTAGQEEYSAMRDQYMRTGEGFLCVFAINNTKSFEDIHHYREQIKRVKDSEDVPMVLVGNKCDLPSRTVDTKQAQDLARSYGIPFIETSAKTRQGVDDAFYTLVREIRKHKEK
Protocol: as §1, §2

| SMILES | IC50 [1] [nM] | IC50 [2] [nM] | IC50 [3] [nM] |
| --- | --- | --- | --- |
| O=C(Oc1ccc(F)cc1)[C@H]1[C@@H]2C[C@H]1CN(c1nc(OCC34CCCN3CCC4)nc3c(F)c(-c4cccc5cccc(F)c45)ncc13)C2 [Example 8, 4-fluorophenyl (1R,5S,6s)-3-(8-fluoro-7-(8-fluoronaphthalen-1-yl)-2-((tetrahydro-1H-pyrrolizin-7a(5H)-yl)methoxy)pyrido[4,3-d]pyrimidin-4-yl)-3-azabicyclo[3.1.1]heptane-6-carboxylate] | > 100000 | > 100000 | > 100000 |
| O=C(Oc1cccc(F)c1F)C1CCN(c2nc(OCC34CCCN3CCC4)nc3c(F)c(-c4cccc5cccc(F)c45)ncc23)CC1 [Example 34, 2,3-difluorophenyl 1-(8-fluoro-7-(8-fluoronaphthalen-1-yl)-2-((tetrahydro-1H-pyrrolizin-7a(5H)-yl)methoxy)pyrido[4,3-d]pyrimidin-4-yl)piperidine-4-carboxylate] | > 100000 | > 100000 | 7890 |
| O=C1OCCN1C(=O)C1CCN(c2nc(OCC34CCCN3CCC4)nc3c(F)c(-c4cccc5cccc(F)c45)ncc23)CC1 [Example 2, 3-(1-(8-fluoro-7-(8-fluoronaphthalen-1-yl)-2-((tetrahydro-1H-pyrrolizin-7a(5H)-yl)methoxy)pyrido[4,3-d]pyrimidin-4-yl)piperidine-4-carbonyl)oxazolidin-2-one] | 72500 | 73900 | > 100000 |
| O=C(Oc1ccc(C(F)(F)F)cc1)C1CCN(c2nc(OCC34CCCN3CCC4)nc3c(F)c(-c4cccc5cccc(F)c45)ncc23)CC1 [Example 42, 4-(trifluoromethyl)phenyl 1-(8-fluoro-7-(8-fluoronaphthalen-1-yl)-2-((tetrahydro-1H-pyrrolizin-7a(5H)-yl)methoxy)pyrido[4,3-d]pyrimidin-4-yl)piperidine-4-carboxylate] | 68100 | > 100000 | 768 |
| O=C(Oc1ccc(F)c(F)c1)[C@H]1CCN(c2nc(OCC34CCCN3CCC4)nc3c(F)c(-c4cccc5cccc(F)c45)ncc23)C[C@H]1O [Example 36, 3,4-difluorophenyl (3S,4S)-1-(8-fluoro-7-(8-fluoronaphthalen-1-yl)-2-((tetrahydro-1H-pyrrolizin-7a(5H)-yl)methoxy)pyrido[4,3-d]pyrimidin-4-yl)-3-hydroxypiperidine-4-carboxylate] | > 100000 | > 100000 | 18900 |
| O=C(Oc1ccccc1F)[C@@H]1[C@@H]2CC[C@H]1CN(c1nc(OCC34CCCN3CCC4)nc3c(F)c(-c4cccc5cccc(F)c45)ncc13)C2 [Example 25, 2-fluorophenyl (1R,5S,8s)-3-(8-fluoro-7-(8-fluoronaphthalen-1-yl)-2-((tetrahydro-1H-pyrrolizin-7a(5H)-yl)methoxy)pyrido[4,3-d]pyrimidin-4-yl)-3-azabicyclo[3.2.1]octane-8-carboxylate] | > 100000 | 10900 | 66900 |
| O=C(OCC(F)(F)F)C1CCN(c2nc(OCC34CCCN3CCC4)nc3c(F)c(-c4cccc5cccc(F)c45)ncc23)CC1 [Example 31, 2,2,2-trifluoroethyl 1-(8-fluoro-7-(8-fluoronaphthalen-1-yl)-2-((tetrahydro-1H-pyrrolizin-7a(5H)-yl)methoxy)pyrido[4,3-d]pyrimidin-4-yl)piperidine-4-carboxylate] | > 100000 | 39400 | > 100000 |
| N#Cc1ccccc1OC(=O)[C@@H]1[C@@H]2CC[C@H]1CN(c1nc(OCC34CCCN3CCC4)nc3c(F)c(-c4cccc5cccc(F)c45)ncc13)C2 [Example 21, 2-cyanophenyl (1R,5S,8r)-3-(8-fluoro-7-(8-fluoronaphthalen-1-yl)-2-((tetrahydro-1H-pyrrolizin-7a(5H)-yl)methoxy)pyrido[4,3-d]pyrimidin-4-yl)-3-azabicyclo[3.2.1]octane-8-carboxylate] | > 100000 | 52200 | 15900 |
| N#Cc1cccc(OC(=O)[C@@H]2[C@@H]3CC[C@H]2CN(c2nc(OCC45CCCN4CCC5)nc4c(F)c(-c5cccc6cccc(F)c56)ncc24)C3)c1 [Example 22, 3-cyanophenyl (1R,5S,8r)-3-(8-fluoro-7-(8-fluoronaphthalen-1-yl)-2-((tetrahydro-1H-pyrrolizin-7a(5H)-yl)methoxy)pyrido[4,3-d]pyrimidin-4-yl)-3-azabicyclo[3.2.1]octane-8-carboxylate] | > 100000 | 14100 | 95200 |

Now those with a lower IC50 [1], led by results:

| IC50 [1] [nM] | IC50 [2] [nM] | IC50 [3] [nM] | SMILES |
| --- | --- | --- | --- |
| 7950 | 8060 | 10600 | O=C(Oc1c(F)cccc1F)[C@H]1[C@@H]2C[C@H]1CN(c1nc(OCC34CCCN3CCC4)nc3c(F)c(-c4cccc5cccc(F)c45)ncc13)C2 [Example 6, 2,6-difluorophenyl (1R,5S,6s)-3-(8-fluoro-7-(8-fluoronaphthalen-1-yl)-2-((tetrahydro-1H-pyrrolizin-7a(5H)-yl)methoxy)pyrido[4,3-d]pyrimidin-4-yl)-3-azabicyclo[3.1.1]heptane-6-carboxylate] |
| 14 | 23 | 12 | CCc1c(F)ccc2cc(O)cc(-c3ncc4c(N(C)CCCC(=O)NC(C)=O)nc(OC[C@@]56CCCN5C[C@H](F)C6)nc4c3F)c12 [Example 325, N-acetyl-4-((7-(8-ethyl-7-fluoro-3-hydroxynaphthalen-1-yl)-8-fluoro-2-(((2R,7aS)-2-fluorotetrahydro-1H-pyrrolizin-7a(5H)-yl)methoxy)pyrido[4,3-d]pyrimidin-4-yl)(methyl)amino)butanamide] |
| 32800 | > 100000 | 194 | O=C(Oc1c(F)cccc1F)C1CCN(c2nc(OCC34CCCN3CCC4)nc3c(F)c(-c4cccc5cccc(F)c45)ncc23)CC1 [Example 30, 2,6-difluorophenyl 1-(8-fluoro-7-(8-fluoronaphthalen-1-yl)-2-((tetrahydro-1H-pyrrolizin-7a(5H)-yl)methoxy)pyrido[4,3-d]pyrimidin-4-yl)piperidine-4-carboxylate] |
| 26500 | 34400 | 7570 | O=C(Oc1c(F)cccc1F)[C@@H]1[C@@H]2C[C@H]1CN(c1nc(OCC34CCCN3CCC4)nc3c(F)c(-c4cccc5cccc(F)c45)ncc13)C2 [Example 5, 2,6-difluorophenyl (1R,5S,6r)-3-(8-fluoro-7-(8-fluoronaphthalen-1-yl)-2-((tetrahydro-1H-pyrrolizin-7a(5H)-yl)methoxy)pyrido[4,3-d]pyrimidin-4-yl)-3-azabicyclo[3.1.1]heptane-6-carboxylate] |
| 7460 | 2800 | 20100 | COC(=O)[C@@H]1[C@@H]2CC[C@H]1CN(c1nc(OCC34CCCN3CCC4)nc3c(F)c(-c4cccc5cccc(F)c45)ncc13)C2 [Example 19, methyl (1R,5S,8s)-3-(8-fluoro-7-(8-fluoronaphthalen-1-yl)-2-((tetrahydro-1H-pyrrolizin-7a(5H)-yl)methoxy)pyrido[4,3-d]pyrimidin-4-yl)-3-azabicyclo[3.2.1]octane-8-carboxylate] |
| 31500 | 64600 | 30600 | Cc1cc(C)n(C(=O)C2CCN(c3nc(OCC45CCCN4CCC5)nc4c(F)c(-c5cccc6cccc(F)c56)ncc34)CC2)n1 [Example 9, (3,5-dimethyl-1H-pyrazol-1-yl)(1-(8-fluoro-7-(8-fluoronaphthalen-1-yl)-2-((tetrahydro-1H-pyrrolizin-7a(5H)-yl)methoxy)pyrido[4,3-d]pyrimidin-4-yl)piperidin-4-yl)methanone] |
| 43300 | > 100000 | 128 | O=C(Oc1cccnc1)C1CCN(c2nc(OCC34CCCN3CCC4)nc3c(F)c(-c4cccc5cccc(F)c45)ncc23)CC1 [Example 32, pyridin-3-yl 1-(8-fluoro-7-(8-fluoronaphthalen-1-yl)-2-((tetrahydro-1H-pyrrolizin-7a(5H)-yl)methoxy)pyrido[4,3-d]pyrimidin-4-yl)piperidine-4-carboxylate] |
| 59600 | 48500 | 808 | O=C(Oc1c(F)cc(F)cc1F)C1CCN(c2nc(OCC34CCCN3CCC4)nc3c(F)c(-c4cccc5cccc(F)c45)ncc23)CC1 [Example 12, 2,4,6-trifluorophenyl 1-(8-fluoro-7-(8-fluoronaphthalen-1-yl)-2-((tetrahydro-1H-pyrrolizin-7a(5H)-yl)methoxy)pyrido[4,3-d]pyrimidin-4-yl)piperidine-4-carboxylate] |
| 346 | 649 | 582 | O=C(Nc1ccccn1)C1CCN(c2nc(OCC34CCCN3CCC4)nc3c(F)c(-c4cccc5cccc(F)c45)ncc23)CC1 [Example 3, 1-(8-fluoro-7-(8-fluoronaphthalen-1-yl)-2-((tetrahydro-1H-pyrrolizin-7a(5H)-yl)methoxy)pyrido[4,3-d]pyrimidin-4-yl)-N-(pyridin-2-yl)piperidine-4-carboxamide] |
| 17600 | 12300 | 18200 | COC(=O)C1CCN(c2nc(OCC34CCCN3CCC4)nc3c(F)c(-c4cccc5cccc(F)c45)ncc23)CC1 [Example 41, methyl 1-(8-fluoro-7-(8-fluoronaphthalen-1-yl)-2-((tetrahydro-1H-pyrrolizin-7a(5H)-yl)methoxy)pyrido[4,3-d]pyrimidin-4-yl)piperidine-4-carboxylate] |
